This note sets out measurements from ChEMBL document CHEMBL2417377, “Hit-to-lead optimization and kinase selectivity of imidazo[1,2-a]quinoxalin-4-amine derived JNK1 inhibitors” (Bioorg Med Chem Lett, 2013).

SMILES strings stand for the structures.

The target in assay [1] is Mitogen-activated protein kinase 9 (Homo sapiens, UniProt P45984). As to the kind of experiment: Inhibition of JNK2 in human Jurkat cell lysates using desthiobiotin-tagged ATP probe AX9989 followed by trypsinization by LC/MS analysis.
The target in assay [2] is Casein kinase II subunit alpha' (Homo sapiens) (UniProt P19784). In words: Inhibition of CK2alpha2 in human PC3 cell lysates at 30 uM using desthiobiotin-tagged ATP probe AX9989 followed by trypsinization by LC/MS analysis. Particulars: PC-3.
Assay [3] addresses Cyclin-dependent kinase 10 (Homo sapiens) (UniProt Q15131). As to the kind of experiment: Inhibition of CDK10 in human PC3 cell lysates at 30 uM using desthiobiotin-tagged ATP probe AX9989 followed by trypsinization by LC/MS analysis. To be noted: PC-3.
Assay [4] addresses Microtubule-associated serine/threonine-protein kinase 3 (Homo sapiens, UniProt O60307). As to the kind of experiment: Inhibition of MAST3 in human PC3 cell lysates at 30 uM using desthiobiotin-tagged ATP probe AX9989 followed by trypsinization by LC/MS analysis. Particulars: PC-3.
Assay [5] has as its target eIF-2-alpha kinase GCN2 (Homo sapiens) (UniProt Q9P2K8). As to the kind of experiment: Inhibition of GCN2 in human PC3 cell lysates at 30 uM using desthiobiotin-tagged ATP probe AX9989 followed by trypsinization by LC/MS analysis. To be noted: PC-3.
For assay [6], the target named is T1, Serine/threonine-protein kinase STK11 (Homo sapiens) (UniProt Q15831).
T1 sequence (whole entry): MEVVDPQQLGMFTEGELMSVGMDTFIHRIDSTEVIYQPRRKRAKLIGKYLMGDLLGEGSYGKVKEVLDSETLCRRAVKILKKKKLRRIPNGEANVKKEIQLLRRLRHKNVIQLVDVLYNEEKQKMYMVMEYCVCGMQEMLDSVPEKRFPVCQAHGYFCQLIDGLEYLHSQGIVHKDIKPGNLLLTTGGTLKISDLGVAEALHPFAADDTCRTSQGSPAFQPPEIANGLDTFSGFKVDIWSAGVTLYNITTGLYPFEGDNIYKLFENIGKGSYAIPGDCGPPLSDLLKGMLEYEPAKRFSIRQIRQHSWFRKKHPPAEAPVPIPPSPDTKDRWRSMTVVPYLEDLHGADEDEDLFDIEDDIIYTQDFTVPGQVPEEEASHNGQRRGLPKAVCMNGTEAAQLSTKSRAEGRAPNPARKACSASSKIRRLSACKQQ
As to the kind of experiment: Inhibition of LKB1 in human PC3 cell lysates at 30 uM using desthiobiotin-tagged ATP probe AX9989 followed by trypsinization by LC/MS analysis. To be noted: PC-3.

The target of assay [7] is c-Jun N-terminal kinase, JNK (Homo sapiens) (UniProt P45983+P53779+P45984). In words: Inhibition of JNK1/JNK2/JNK3 in human PC3 cell lysates at 30 uM using desthiobiotin-tagged ATP probe AX9989 followed by trypsinization by LC/MS analysis. The format is protein assay. Particulars: PC-3.
In assay [8] the target is Phosphatidylinositol 4-kinase beta (Homo sapiens) (UniProt Q9UBF8). As to the kind of experiment: Inhibition of PI4KB in human PC3 cell lysates at 30 uM using desthiobiotin-tagged ATP probe AX9989 followed by trypsinization by LC/MS analysis. Particulars: PC-3.
Assay [9] concerns the target MAST1/MAST2 (Homo sapiens) (UniProt Q9Y2H9+Q6P0Q8). In words: Inhibition of MAST1/2 in human HuH7 cell lysates at 10 uM. In kind it is protein assay. Particulars: Huh-7.

Sequence of Casein kinase II subunit alpha' (Homo sapiens) (P19784 whole entry, looked up): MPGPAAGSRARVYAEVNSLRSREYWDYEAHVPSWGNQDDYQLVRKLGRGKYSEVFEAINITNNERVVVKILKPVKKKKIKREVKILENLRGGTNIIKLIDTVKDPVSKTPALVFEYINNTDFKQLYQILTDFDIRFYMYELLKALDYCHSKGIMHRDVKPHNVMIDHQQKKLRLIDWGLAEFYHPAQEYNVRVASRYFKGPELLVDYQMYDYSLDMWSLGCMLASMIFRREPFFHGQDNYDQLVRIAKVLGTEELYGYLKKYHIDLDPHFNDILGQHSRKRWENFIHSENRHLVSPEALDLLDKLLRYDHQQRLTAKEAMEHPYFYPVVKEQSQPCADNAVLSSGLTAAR
Sequence of Mitogen-activated protein kinase 9 (P45984 whole entry): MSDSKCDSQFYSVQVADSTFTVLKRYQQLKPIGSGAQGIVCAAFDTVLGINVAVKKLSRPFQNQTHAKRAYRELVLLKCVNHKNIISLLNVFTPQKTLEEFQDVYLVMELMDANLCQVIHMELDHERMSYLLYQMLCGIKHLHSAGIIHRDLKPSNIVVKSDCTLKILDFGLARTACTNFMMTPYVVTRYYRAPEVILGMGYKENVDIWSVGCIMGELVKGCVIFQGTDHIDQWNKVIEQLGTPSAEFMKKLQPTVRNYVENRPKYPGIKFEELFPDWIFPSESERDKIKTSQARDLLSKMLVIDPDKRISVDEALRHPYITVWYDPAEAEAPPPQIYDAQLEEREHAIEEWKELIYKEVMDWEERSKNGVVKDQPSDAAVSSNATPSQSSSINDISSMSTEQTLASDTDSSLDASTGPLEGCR
Sequence of Microtubule-associated serine/threonine-protein kinase 3 (O60307 whole entry): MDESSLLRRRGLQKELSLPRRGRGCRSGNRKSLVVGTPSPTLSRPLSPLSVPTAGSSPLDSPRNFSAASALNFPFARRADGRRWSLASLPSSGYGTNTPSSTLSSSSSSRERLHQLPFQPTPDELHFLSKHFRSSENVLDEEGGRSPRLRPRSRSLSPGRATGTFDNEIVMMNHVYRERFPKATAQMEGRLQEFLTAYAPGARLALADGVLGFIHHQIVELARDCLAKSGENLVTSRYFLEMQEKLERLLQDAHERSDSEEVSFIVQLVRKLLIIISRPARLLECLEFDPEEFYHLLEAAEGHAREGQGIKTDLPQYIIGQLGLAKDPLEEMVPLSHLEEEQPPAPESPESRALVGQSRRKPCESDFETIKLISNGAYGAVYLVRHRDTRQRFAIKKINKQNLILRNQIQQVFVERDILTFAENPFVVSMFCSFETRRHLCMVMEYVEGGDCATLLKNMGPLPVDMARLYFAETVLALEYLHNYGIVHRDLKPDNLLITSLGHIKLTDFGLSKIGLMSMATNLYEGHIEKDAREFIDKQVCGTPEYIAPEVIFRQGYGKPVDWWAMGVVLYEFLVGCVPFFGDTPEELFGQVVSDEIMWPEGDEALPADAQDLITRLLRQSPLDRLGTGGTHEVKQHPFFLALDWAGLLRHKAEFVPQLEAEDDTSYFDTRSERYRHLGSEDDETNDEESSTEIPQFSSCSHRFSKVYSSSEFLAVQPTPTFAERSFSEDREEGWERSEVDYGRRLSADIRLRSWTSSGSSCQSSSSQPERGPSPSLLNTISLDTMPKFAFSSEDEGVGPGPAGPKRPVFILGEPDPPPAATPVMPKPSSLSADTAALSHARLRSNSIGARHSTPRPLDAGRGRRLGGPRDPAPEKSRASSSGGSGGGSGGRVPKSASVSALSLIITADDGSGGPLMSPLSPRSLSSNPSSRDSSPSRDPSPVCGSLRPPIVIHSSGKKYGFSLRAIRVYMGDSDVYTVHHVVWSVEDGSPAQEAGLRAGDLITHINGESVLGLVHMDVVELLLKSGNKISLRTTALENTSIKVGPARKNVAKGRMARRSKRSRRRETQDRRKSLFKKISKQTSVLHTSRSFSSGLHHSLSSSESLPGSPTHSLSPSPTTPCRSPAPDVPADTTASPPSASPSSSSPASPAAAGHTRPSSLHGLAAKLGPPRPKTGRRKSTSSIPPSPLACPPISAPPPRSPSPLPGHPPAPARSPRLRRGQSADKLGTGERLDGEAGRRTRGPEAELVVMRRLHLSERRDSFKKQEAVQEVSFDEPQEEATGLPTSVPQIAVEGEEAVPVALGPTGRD
Sequence of Phosphatidylinositol 4-kinase beta (Homo sapiens) (Q9UBF8 2-816 limits assumed): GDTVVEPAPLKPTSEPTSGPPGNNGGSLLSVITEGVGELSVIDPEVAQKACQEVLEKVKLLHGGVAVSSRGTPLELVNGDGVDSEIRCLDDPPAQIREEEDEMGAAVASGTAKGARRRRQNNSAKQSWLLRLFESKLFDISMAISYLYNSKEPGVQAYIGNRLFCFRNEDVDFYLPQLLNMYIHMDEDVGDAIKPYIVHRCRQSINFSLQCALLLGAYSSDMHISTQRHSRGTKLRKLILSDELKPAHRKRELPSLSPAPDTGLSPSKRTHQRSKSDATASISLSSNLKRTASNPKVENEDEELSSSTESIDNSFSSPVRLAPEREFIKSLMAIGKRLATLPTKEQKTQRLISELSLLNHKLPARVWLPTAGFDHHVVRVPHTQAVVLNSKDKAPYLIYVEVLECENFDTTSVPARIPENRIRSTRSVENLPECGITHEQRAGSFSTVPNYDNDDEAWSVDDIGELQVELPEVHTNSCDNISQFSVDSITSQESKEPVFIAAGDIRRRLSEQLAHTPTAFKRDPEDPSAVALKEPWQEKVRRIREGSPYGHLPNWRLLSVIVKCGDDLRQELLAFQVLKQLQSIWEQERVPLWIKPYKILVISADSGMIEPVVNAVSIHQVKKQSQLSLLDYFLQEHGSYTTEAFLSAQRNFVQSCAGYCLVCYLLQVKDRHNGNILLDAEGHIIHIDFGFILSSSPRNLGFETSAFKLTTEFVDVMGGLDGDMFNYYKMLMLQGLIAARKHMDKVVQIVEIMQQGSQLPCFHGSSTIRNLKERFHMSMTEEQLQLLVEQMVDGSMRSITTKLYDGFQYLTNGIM
Sequence of eIF-2-alpha kinase GCN2 (Homo sapiens) (Q9P2K8 whole entry): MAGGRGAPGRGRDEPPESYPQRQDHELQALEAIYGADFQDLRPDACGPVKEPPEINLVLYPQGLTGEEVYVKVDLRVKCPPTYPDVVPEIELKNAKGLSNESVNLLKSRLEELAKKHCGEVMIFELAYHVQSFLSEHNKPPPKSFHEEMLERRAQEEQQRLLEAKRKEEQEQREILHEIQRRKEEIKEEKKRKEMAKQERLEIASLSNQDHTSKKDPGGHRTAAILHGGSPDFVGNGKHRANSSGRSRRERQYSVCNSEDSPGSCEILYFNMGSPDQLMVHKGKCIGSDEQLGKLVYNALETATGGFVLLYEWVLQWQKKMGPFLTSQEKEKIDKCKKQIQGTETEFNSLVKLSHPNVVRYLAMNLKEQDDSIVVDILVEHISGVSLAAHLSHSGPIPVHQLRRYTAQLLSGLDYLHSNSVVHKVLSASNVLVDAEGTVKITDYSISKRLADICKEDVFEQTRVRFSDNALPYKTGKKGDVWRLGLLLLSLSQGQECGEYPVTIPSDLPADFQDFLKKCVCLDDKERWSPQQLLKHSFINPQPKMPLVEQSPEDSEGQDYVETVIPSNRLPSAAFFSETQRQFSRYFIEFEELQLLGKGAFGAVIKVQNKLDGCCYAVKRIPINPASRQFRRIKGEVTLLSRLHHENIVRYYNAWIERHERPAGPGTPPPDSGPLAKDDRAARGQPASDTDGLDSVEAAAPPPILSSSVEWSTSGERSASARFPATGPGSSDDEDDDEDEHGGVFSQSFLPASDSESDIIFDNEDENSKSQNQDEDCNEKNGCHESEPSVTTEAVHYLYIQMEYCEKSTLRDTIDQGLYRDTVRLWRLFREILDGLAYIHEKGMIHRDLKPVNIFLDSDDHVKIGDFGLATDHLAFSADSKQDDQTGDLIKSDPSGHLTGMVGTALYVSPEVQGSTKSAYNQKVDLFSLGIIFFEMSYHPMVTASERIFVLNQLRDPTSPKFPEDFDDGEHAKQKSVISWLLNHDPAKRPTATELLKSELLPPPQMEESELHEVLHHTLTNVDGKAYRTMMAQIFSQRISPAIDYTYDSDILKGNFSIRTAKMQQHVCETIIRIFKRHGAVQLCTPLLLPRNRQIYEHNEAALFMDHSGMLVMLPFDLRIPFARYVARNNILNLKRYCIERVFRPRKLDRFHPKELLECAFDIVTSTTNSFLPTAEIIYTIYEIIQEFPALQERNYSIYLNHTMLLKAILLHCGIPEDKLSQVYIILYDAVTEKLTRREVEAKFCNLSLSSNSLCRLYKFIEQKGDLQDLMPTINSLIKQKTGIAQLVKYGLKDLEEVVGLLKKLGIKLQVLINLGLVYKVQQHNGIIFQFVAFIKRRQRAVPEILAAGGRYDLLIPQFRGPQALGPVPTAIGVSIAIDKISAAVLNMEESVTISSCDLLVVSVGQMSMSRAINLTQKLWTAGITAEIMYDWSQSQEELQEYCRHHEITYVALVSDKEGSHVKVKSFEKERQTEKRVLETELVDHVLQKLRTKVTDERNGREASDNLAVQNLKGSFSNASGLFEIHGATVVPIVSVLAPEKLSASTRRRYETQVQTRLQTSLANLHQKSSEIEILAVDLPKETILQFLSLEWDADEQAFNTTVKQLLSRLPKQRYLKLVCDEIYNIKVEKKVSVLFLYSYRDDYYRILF
Sequence of Cyclin-dependent kinase 10 (Homo sapiens) (Q15131 whole entry): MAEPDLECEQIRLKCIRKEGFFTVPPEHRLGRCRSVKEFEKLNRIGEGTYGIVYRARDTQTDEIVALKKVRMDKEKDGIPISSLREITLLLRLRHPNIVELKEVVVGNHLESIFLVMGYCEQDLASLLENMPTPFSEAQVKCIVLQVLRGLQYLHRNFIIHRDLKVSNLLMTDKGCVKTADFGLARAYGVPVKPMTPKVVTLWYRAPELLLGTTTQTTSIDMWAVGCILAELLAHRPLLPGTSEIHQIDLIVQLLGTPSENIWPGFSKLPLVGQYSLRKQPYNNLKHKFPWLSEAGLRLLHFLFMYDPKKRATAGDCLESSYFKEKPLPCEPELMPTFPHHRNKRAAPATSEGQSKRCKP

The compound `CC[C@@H](NC(=O)c1ccc2nc(N[C@H]3CC[C@H](O)CC3)c3nccn3c2c1)c1ccccc1` displayed an IC50 in [1] of 100 nM.

Take `c1ccc(CCNc2nc3ccccc3n3ccnc23)cc1`: the inhibition is less than 35% in [2]; 35.7% in [3]; less than 35% in [4]; less than 35% in assay [5]; less than 35% in [6]; 41.6% in assay [7]. For the same compound, the inhibition in assay [8] was 59.9%.

For `CCC[C@@H](NC(=O)c1ccc2nc(N[C@H]3CC[C@H](O)CC3)c3nccn3c2c1)c1ccccc1`, the inhibition in assay [9] turned out to be 36.9%.

In assay [9], `O=C(NC1(c2ccccc2)CC1)c1ccc2nc(N[C@H]3CC[C@H](O)CC3)c3nccn3c2c1` gave an inhibition greater than 86%.

As for `c1ccc2c(c1)nc(NC1CCCCC1)c1nccn12`, the inhibition was less than 35% in assay [2]; 37.2% in assay [3]; less than 35% in [4]; less than 35% in [5]; less than 35% in assay [6]; 80.4% in assay [7]. Also, the inhibition in assay [8] came out at 55.9%.

Regarding `O[C@H]1CC[C@H](Nc2nc3ccccc3n3ccnc23)CC1`, the inhibition in [2] is 49.6%; in assay [3], 79.8%; in [4] it was less than 35%; in assay [5] it was 36.9%; in assay [6], 45.6%; in assay [7], 97.5%. Also, in [8], the inhibition stood at 90.8%.

For the compound `O=C(N[C@H](CO)c1ccccc1)c1ccc2nc(N[C@H]3CC[C@H](O)CC3)c3nccn3c2c1`, the inhibition in [9] stood at 75.6%. The IC50 in [1] turned out to be 135 nM.

In the case of `O=C(NC1(Cc2ccc(F)cc2)CC1)c1ccc2nc(N[C@H]3CC[C@H](O)CC3)c3nccn3c2c1`, in assay [1], half-maximal inhibition (IC50) required 120 nM.

In assay [9], `O=C(NC1(c2ccc(F)cc2)CC1)c1ccc2nc(N[C@H]3CC[C@H](O)CC3)c3nccn3c2c1` had an inhibition of 76%.

Regarding `c1ccc(CNc2nc3ccccc3n3ccnc23)cc1`, the inhibition was less than 35% in assay [2]; less than 35% in [3]; less than 35% in assay [4]; less than 35% in assay [5]; less than 35% in assay [6]; 46.2% in [7]. For the same compound, in [8], the inhibition was determined as 66.5%.
